This is an account of results in patent US20220168230A1, “NANOPARTICLE MEDIATED THERAPY” (Yale University, priority 2019, published 2022).

Data set [1] can be described thus: PET scan of ^11C-glyburide uptake in left and right brain hemispheres of MCAO rats. Conditions: intravenous injection, FIG. 1B. Format: in vivo, rat.
The next data set deals with MCAO mice. In words: Therapeutic benefits in MCAO stroke mice (survival, TTC infarct volume, neurological score). Format: in vivo. Conditions: same amount of BA NPs and/or glyburide as in Gly-NPs, i.v. at 0, 24, 48 h, FIG. 6C, D. An excerpt: MCAO models were generated according to Cai, et al. Neurosci Lett 2015, 597, 127-31; Guo, et al. ACS nano 2018, 12 (8), 8723-8732; Han, et al. Nanomedicine 2016, 12 (7), 1833-42; Yu, et al. Advanced Materials 2018, 30, 1705383. Briefly, rats were anesthetized with 5% isoflurane (Aerrane, Baxter, Deerfield, Ill.) in 30% O2/70% N2O using a Tabletop Anesthesia system (Harvard Apparatus, USA). Isoflurane was then maintained at 1.5%. During the procedures, the body temperature of mice was maintained at 37.0±0.5° C. Regional cerebral blood flow (rCBF) was monitored using a laser Doppler flowmeter (AD Instruments Inc.) duration the course of surgery. […]
Mice were given treatment intravenously at 0, 24 and 48 h after surgery. Mice were monitored for survival for 10 days and were euthanized if one of the following criteria was met: (1) the mouse's body weight dropped below 15% of its initial weight, or (2) the mouse became lethargic or sick and unable to feed. […] Three days later, the score of each mouse was assessed by a standard behavioral test and were scored as follows: (1) normal motor function, (2) flexion of torso and contralateral forelimb when animal was lifted by the tail, (3) hemiparalysis resulting in circling to the contralateral side when held by tail on flat surface, but normal posture at rest, (4) leaning to the contralateral side at rest, and (5) no spontaneous motor activity. […]

For data set [2] the following is noted: in vivo; cited from earlier work.
The conditions of data set [3]: in vivo; cited from earlier work. The source holds these as a separate data set.

For the compound `COc1ccc(Cl)cc1C(=O)NCCc1ccc(S(=O)(=O)NC(=O)NC2CCCCC2)cc1` [^11C-glyburide], in data set [1], the “^11C-glyburide uptake, ischemic versus contralateral hemisphere” value was “no significant difference”. For `COc1ccc(Cl)cc1C(=O)NCCc1ccc(S(=O)(=O)NC(=O)NC2CCCCC2)cc1` [glyburide], the “therapeutic benefits compared with Gly-NP treatment” value in the data set on MCAO mice is “significantly less efficacy”. Besides, the “ability to penetrate the BBB” value in data set [2] was “limited ability to penetrate the BBB”. As for `C[C@@H]1CC[C@H]2[C@@H](C)C(=O)O[C@@H]3O[C@@]4(C)CC[C@@H]1[C@]32OO4` [Artemisinin], in data set [3], the bioavailability result is “less than 10%”.
